Measured values published in ChEMBL document CHEMBL1821630, “Synthesis and antitumor activity of new sulfonamide derivatives of thiadiazolo[3,2-a]pyrimidines” (Eur J Med Chem, 2011).
In brackets after ≈: the same amount, converted by molar mass. Activity calls are given as the source filed them. The calls are words filed in the database; no cut-off is given here.

Legend:
Nucleic Acid [1] = assay: Binding affinity to DNA using anisaldehyde reagent by TLC method; format: nucleic-acid assay
Nucleic Acid [2] = assay: Displacement of methyl green dye from DNA after 24 hrs by spectrophotometric analysis; format: nucleic-acid assay
[3] = Antitumor activity against mouse EAC cells xenografted in Swiss albino mouse assessed as increase in lifespan of organism at 100 ug administered 24 hrs post inoculation for 9 days; format: functional, Ehrlich
Mus musculus [4] = assay: Toxicity in Swiss albino mouse xenografted with mouse EAC assessed as haemoglobin level at 100 ug (reference value: 13.4 per g%); format: organism-based; conditions: in vivo
Mus musculus [5] = assay: Toxicity in Swiss albino mouse xenografted with mouse EAC assessed as RBC level at 100 ug (reference value: 5.1/10^6 mm-3); format: organism-based; conditions: in vivo
Mus musculus [6] = assay: Toxicity in Swiss albino mouse xenografted with mouse EAC assessed as total WBC level at 100 ug (reference value: 4.35/10^3 mm3); format: organism-based; conditions: in vivo
Mus musculus [7] = assay: Toxicity in Swiss albino mouse xenografted with mouse EAC assessed as ALT level at 100 ug (reference value: 3.7 u/L); format: organism-based; conditions: in vivo
Ehrlich [8] = assay: Antitumor activity against mouse EAC cells xenografted in Swiss albino mouse assessed as reduction in viable tumor cells at 100 ug after 5 days using giemsa staining by microscopy; format: functional
[9] = Antitumor activity against mouse EAC cells xenografted in Swiss albino mouse assessed as increase in lifespan of organism at 20 mg/kg, ip administered 24 hrs post inoculation for 9 days; format: functional, Ehrlich; conditions: route intraperitoneal
Mus musculus [10] = assay: Toxicity in Swiss albino mouse xenografted with mouse EAC assessed as haemoglobin level at 20 mg/kg, ip (reference value: 13.4 per g%); format: organism-based; set-up: dose 20 mg/kg, route intraperitoneal; conditions: in vivo
Mus musculus [11] = assay: Toxicity in Swiss albino mouse xenografted with mouse EAC assessed as RBC level at 20 mg/kg, ip (reference value: 5.1/10^6 mm-3); format: organism-based; set-up: dose 20 mg/kg, route intraperitoneal; conditions: in vivo
Mus musculus [12] = assay: Toxicity in Swiss albino mouse xenografted with mouse EAC assessed as total WBC level at 20 mg/kg, ip (reference value: 4.35/10^3 mm3); format: organism-based; set-up: dose 20 mg/kg, route intraperitoneal; conditions: in vivo
Mus musculus [13] = assay: Toxicity in Swiss albino mouse xenografted with mouse EAC assessed as ALT level at 20 mg/kg, ip (reference value: 3.7 u/L); format: organism-based; set-up: dose 20 mg/kg, route intraperitoneal; conditions: in vivo
Ehrlich [14] = assay: Antitumor activity against mouse EAC cells xenografted in Swiss albino mouse assessed as reduction in viable tumor cells at 20 mg/kg, ip after 5 days using giemsa staining by microscopy; format: functional, organism-based; set-up: dose 20 mg/kg

With `Cc1nc2sc(S(N)(=O)=O)nn2c(=O)c1/N=N/c1ccc([N+](=O)[O-])cc1` the Activity (Nucleic Acid [1]) was “inactive” and the IC50 (Nucleic Acid [2]) was 81 µg/mL (≈ 205 µM).
With `Nc1ccc(C2=CC(c3ccc(Cl)cc3)N3N=C(S(N)(=O)=O)SC3=N2)cc1` (centres undefined) the Activity (Nucleic Acid [1]) was “Active”, the IC50 (Nucleic Acid [2]) was 64 µg/mL (≈ 152 µM) and the Activity [3] was 71.43%. For the same molecule, the Activity (Mus musculus [4]) was 11.1%, the Activity (Mus musculus [5]) was 5.96% and the Activity (Mus musculus [6]) was 9.45%. The Activity (Mus musculus [7]) was 6.7% and the Activity (Ehrlich [8]) was “Active”.
In the case of `COc1ccc(/N=N/c2c(C)nc3sc(S(N)(=O)=O)nn3c2=O)cc1`, the Activity (Nucleic Acid [1]) was “inactive” and the IC50 (Nucleic Acid [2]) was 81 µg/mL (≈ 213 µM).
In the case of `Cc1cc(=O)n2nc(S(N)(=O)=O)sc2n1`, the IC50 (Nucleic Acid [2]) was 76 µg/mL (≈ 309 µM).
For `NS(=O)(=O)C1=NN2C(=NC(c3ccccc3)=CC2c2ccc([N+](=O)[O-])cc2)S1` (centres undefined), the Activity (Nucleic Acid [1]) was “inactive” and the IC50 (Nucleic Acid [2]) was 81 µg/mL (≈ 195 µM).
Molecule `Cc1nc2sc(S(N)(=O)=O)nn2c(=O)c1/N=N/c1ccccc1` has an IC50 (Nucleic Acid [2]) of 77 µg/mL (≈ 220 µM).
In the case of `Cc1ccc(/N=N/c2c(C)nc3sc(S(N)(=O)=O)nn3c2=O)cc1`, the Activity (Nucleic Acid [1]) was “inactive” and the IC50 (Nucleic Acid [2]) was 81 µg/mL (≈ 222 µM).
For `NS(=O)(=O)c1nn2c(=O)cc(C(=O)NNc3ccccc3)nc2s1`, the Activity (Nucleic Acid [1]) was “inactive” and the IC50 (Nucleic Acid [2]) was 81 µg/mL (≈ 221 µM).
`Cc1nc2sc(S(N)(=O)=O)nn2c(=O)c1/N=N/c1ccc(Cl)cc1` showed an IC50 (Nucleic Acid [2]) of 74 µg/mL (≈ 192 µM).
`Cc1cccc(C2=CC(c3ccccc3)N3N=C(S(N)(=O)=O)SC3=N2)c1` (centres undefined) gave an IC50 (Nucleic Acid [2]) of 72 µg/mL (≈ 187 µM).
For `O=c1[nH]cc(F)c(=O)[nH]1` [FLUOROURACIL], the Activity [9] was 42.86%, the Activity (Mus musculus [10]) was 15.6% and the Activity (Mus musculus [11]) was 5.87%. For the same molecule, the Activity (Mus musculus [12]) was 14.7%, the Activity (Mus musculus [13]) was 6.9% and the Activity (Ehrlich [14]) was “Active”.
Work on `CC[n+]1c(-c2ccccc2)c2cc(N)ccc2c2ccc(N)cc21.[Br-]` [HOMIDIUM BROMIDE] yielded an IC50 (Nucleic Acid [2]) of 1.4 µg/mL.
`N=C1CC(=O)N=C2SC(S([NH-])(=O)=O)=NN12.[Na+]` gave an IC50 (Nucleic Acid [2]) of 76 µg/mL.
Molecule `NS(=O)(=O)c1nn2c(=O)cc(Cl)nc2s1` has an IC50 (Nucleic Acid [2]) of 79 µg/mL (≈ 296 µM).
With `NS(=O)(=O)c1nn2c(=O)ccnc2s1` the IC50 (Nucleic Acid [2]) was 70 µg/mL (≈ 301 µM).
In the case of `NS(=O)(=O)C1=NN2C(=NC(c3ccccc3)=CC2c2cc([N+](=O)[O-])ccc2Cl)S1` (centres undefined), the IC50 (Nucleic Acid [2]) was 80 µg/mL (≈ 178 µM).
In the case of `NS(=O)(=O)C1=NN2C(=NC(c3ccccc3)=CC2c2ccc(Cl)cc2)S1` (centres undefined), the Activity (Nucleic Acid [1]) was “Active”, the IC50 (Nucleic Acid [2]) was 40 µg/mL (≈ 98.8 µM) and the Activity [3] was 42.86%. The Activity (Ehrlich [8]) was “Active”.
For `COc1ccc(C2C=C(c3ccccc3)N=C3SC(S(N)(=O)=O)=NN32)cc1OC` (centres undefined), the Activity (Nucleic Acid [1]) was “Active”, the IC50 (Nucleic Acid [2]) was 62 µg/mL (≈ 144 µM) and the Activity [3] was 57.14%. The Activity (Ehrlich [8]) was “Active”.
For `COc1ccc(C2C=C(c3ccc(N)cc3)N=C3SC(S(N)(=O)=O)=NN32)cc1` (centres undefined), the Activity (Nucleic Acid [1]) was “inactive” and the IC50 (Nucleic Acid [2]) was 81 µg/mL (≈ 195 µM).
In the case of `Cc1nc2sc(S(N)(=O)=O)nn2c(=O)c1/N=N/c1ccc(Br)cc1`, the IC50 (Nucleic Acid [2]) was 74 µg/mL (≈ 172 µM).
